Test results from US5741781A, “Mercaptoalkanoyldipeptide compounds” (Adir et Compagnie, priority 1995, dated 1998).
Blank lines part the entries; values can stand above or below the compound they belong to.

Key:
[1] = target: neutral endopeptidase (NEP) (Homo sapiens, UniProt P08473); assay: Inhibitory effect in vitro on neutral endopeptidase, [3H]-D-Ala2-Leu-encephalin as substrate; type: biochemical
[2] = target: peptidyldipeptidase A (ACE) (Homo sapiens, UniProt P12821); assay: Inhibitory effect in vitro on peptidyldipeptidase A, Z-Phe-His-Leu as substrate; type: biochemical
Protocol: The inhibitory properties of the compounds of the invention are measured using [^3 H]-D-Ala^2 -Leu-encephalin as substrate for neutral endopeptidase, in accordance with the protocol described by Llorens et al. (Biochem. Biophys. Res. Commun., 96, (1980), 1710 sqq), and Z-Phe-His-Leu as substrate in the case of peptidyldipeptidase A in accordance with the protocol described in Biochem. Biophys. Acta, 206, (1970), 136-142.

[3] = tested on: spontaneously hypertensive male rat (SHR); assay: Anti-hypertensive effect in the spontaneously hypertensive rat (SHR); type: in vivo
Protocol: The anti-hypertensive effect of the compounds of the invention is determined in vivo in the rat affected by a hypertension induced by the administration of DOCA salt (deoxycorticosterone acetate) and in the spontaneously hypertensive male rat (SHR), in accordance with the protocol described by Trapani et al. (J. Cardiovasc. Pharmacol., 14, (1989), 419-424). In that test the compounds of the invention are shown to be powerful anti-hypertensives and to be non-toxic.

[4] = target: T1, pulmonary peptidyldipeptidase A (ACE) (Mus musculus, UniProt P09470); assay: Inhibition in vivo of pulmonary ACE, competition with [3H]trandolaprilate; settings: mice, p.o. single dose 2.6 × 10^-6 mol/kg (1.5 mg/kg)
T1 construct: from tissue; host or cells: mouse lung (in vivo, homogenised after sacrifice)
T1 sequence (P09470 35-1312): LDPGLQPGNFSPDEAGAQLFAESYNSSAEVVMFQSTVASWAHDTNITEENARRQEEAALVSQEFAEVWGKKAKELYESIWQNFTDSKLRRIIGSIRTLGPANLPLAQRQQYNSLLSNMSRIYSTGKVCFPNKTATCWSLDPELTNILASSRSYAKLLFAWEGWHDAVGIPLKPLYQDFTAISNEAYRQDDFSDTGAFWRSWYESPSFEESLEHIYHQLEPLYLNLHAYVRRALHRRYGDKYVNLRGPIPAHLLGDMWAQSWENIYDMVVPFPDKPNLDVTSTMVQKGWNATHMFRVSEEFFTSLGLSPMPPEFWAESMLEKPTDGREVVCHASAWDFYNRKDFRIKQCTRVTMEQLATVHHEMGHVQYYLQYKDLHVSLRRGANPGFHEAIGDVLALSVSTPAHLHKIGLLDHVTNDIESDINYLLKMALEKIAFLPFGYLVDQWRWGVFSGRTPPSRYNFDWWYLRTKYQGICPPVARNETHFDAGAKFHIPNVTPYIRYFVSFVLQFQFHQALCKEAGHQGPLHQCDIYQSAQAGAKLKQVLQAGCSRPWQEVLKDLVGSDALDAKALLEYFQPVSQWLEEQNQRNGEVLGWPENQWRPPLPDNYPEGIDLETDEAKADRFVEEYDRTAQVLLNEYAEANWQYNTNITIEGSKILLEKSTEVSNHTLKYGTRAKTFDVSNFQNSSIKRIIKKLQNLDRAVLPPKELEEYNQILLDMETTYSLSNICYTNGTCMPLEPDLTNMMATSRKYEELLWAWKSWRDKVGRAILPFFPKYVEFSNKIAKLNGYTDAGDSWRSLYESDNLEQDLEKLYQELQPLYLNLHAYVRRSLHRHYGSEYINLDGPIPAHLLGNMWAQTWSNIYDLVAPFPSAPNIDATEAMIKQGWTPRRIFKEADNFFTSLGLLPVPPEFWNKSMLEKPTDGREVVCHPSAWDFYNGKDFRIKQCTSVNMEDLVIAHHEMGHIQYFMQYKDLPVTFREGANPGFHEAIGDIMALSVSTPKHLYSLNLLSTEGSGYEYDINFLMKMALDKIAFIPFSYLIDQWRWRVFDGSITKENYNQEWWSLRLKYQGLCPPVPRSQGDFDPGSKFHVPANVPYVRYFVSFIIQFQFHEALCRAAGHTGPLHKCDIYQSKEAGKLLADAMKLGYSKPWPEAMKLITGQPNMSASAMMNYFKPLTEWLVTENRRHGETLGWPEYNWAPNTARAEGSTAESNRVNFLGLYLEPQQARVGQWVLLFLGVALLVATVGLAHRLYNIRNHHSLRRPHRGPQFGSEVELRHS
Protocol: (§1) The compounds are administrated per os to mice in a single dose. Inhibition of both enzymes is measured during a time period from 1 hour to 16 hours by competitive experiments with specific radiolabelled markers for each enzyme. After i.v. administration of a radiolabelled ACE inhibitor ([^3 H]trandolaprilate) or a radiolabelled NEP inhibitor ([^3 H]HACBOGIy), the animal is sacrificed and the lungs or the kidneys are removed. The organs are homogenized and the radioactivity associated to these homogenates is measured by liquid scintillation as described in the protocol by M. C. Fourni6-Zaluski et al. (J. Med. Chem., 37, (1994), 1070-1083).

[5] = target: T2, renal neutral endopeptidase (NEP) (Mus musculus, UniProt Q61391); assay: Inhibition in vivo of renal NEP, competition with [3H]HACBOGIy; settings: mice, p.o. single dose 2.6 × 10^-6 mol/kg (1.5 mg/kg)
T2 construct: from tissue; host or cells: mouse kidney (in vivo, homogenised after sacrifice)
T2 sequence (Q61391 1-750): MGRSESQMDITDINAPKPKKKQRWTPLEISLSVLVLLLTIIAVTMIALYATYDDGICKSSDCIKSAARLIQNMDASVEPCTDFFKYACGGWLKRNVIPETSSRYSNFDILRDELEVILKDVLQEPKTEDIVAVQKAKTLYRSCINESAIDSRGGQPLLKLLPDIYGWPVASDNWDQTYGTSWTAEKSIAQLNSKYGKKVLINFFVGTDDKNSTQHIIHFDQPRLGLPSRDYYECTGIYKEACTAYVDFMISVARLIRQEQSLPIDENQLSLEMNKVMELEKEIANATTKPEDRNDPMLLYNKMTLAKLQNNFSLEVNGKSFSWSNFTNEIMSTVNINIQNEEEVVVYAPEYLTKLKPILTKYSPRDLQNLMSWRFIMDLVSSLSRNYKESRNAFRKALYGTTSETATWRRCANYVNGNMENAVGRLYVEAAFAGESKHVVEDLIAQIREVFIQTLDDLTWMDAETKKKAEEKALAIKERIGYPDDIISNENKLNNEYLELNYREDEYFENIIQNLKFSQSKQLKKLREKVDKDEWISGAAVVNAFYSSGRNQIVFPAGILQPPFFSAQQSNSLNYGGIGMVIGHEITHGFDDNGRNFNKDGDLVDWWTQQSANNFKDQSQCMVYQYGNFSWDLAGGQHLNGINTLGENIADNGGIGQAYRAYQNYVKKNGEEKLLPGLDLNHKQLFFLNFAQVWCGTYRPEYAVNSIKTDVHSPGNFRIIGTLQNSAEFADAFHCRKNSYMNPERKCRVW
Protocol: as §1

[6] = cited from earlier work
[7] = target: neutral endopeptidase called "encephalinase" (Homo sapiens, UniProt P08473); settings: Nature, 228, (1980), 286-288; cited from earlier work
Chain of neutral endopeptidase called "encephalinase" (P08473 whole entry): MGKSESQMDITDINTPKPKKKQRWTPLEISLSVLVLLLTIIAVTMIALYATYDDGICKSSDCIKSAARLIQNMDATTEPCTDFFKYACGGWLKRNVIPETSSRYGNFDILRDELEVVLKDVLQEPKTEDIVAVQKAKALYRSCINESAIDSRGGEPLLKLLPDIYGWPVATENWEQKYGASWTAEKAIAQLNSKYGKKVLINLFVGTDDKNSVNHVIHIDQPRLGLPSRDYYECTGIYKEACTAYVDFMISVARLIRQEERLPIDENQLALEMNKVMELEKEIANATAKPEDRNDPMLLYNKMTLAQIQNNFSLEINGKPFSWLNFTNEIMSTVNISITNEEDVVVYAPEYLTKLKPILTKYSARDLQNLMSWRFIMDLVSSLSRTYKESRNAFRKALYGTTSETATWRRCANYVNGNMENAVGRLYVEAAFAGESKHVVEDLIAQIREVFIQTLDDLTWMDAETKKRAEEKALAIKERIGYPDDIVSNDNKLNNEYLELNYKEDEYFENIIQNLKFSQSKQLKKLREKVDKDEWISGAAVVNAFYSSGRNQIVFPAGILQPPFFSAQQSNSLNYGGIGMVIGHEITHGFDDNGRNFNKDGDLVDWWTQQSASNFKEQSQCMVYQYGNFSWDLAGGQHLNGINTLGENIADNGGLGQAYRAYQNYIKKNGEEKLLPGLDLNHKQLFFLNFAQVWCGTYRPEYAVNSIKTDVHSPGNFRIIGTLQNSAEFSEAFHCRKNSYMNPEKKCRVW

Chain of neutral endopeptidase (NEP) (P08473 whole entry, species assumed): as the sequence (P08473 whole entry) above
Chain of peptidyldipeptidase A (ACE) (P12821 30-1306, species assumed): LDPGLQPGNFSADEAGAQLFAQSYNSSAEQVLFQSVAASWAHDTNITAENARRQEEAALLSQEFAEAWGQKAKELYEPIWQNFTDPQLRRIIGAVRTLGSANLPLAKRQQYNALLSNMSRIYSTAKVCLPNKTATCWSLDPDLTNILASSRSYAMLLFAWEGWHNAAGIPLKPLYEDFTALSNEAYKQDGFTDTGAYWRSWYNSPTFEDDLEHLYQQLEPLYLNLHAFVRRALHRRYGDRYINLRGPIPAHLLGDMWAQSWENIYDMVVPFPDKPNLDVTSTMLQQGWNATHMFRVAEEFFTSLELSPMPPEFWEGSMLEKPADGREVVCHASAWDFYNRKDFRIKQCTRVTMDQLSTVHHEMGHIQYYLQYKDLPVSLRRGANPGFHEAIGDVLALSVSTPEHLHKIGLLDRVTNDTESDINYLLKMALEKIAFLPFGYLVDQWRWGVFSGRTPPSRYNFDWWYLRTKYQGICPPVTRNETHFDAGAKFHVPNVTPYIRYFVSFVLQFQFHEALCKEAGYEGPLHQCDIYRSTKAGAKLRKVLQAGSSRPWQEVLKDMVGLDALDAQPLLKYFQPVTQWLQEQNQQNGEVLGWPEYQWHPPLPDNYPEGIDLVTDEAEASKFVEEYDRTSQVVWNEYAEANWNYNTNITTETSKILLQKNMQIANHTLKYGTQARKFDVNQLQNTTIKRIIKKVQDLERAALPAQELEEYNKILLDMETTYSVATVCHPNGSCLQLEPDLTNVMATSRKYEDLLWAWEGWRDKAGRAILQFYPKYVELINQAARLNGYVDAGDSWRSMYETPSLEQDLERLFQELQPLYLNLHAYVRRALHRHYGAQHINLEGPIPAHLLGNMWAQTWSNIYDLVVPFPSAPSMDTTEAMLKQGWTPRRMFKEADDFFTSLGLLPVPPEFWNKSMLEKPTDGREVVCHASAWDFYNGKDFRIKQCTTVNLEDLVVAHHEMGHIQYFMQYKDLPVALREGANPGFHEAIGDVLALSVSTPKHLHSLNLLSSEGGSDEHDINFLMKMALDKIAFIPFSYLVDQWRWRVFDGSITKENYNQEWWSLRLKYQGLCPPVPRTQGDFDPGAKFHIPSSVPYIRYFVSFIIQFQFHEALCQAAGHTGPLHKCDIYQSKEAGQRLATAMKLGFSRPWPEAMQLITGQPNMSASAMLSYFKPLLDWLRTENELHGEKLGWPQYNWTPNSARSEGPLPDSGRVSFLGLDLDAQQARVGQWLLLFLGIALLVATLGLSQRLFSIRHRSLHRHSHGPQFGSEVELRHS

IC50 ([1]; in vitro): 4 ± 0.6 nM
IC50 [2]: 3.5 ± 0.6 nM
SMILES: Cc1ccccc1C1CC[C@@H](C(=O)O)N1C(=O)CNC(=O)C(S)Cc1ccccc1 (some centres unmarked) [Example 36, N-[N-(2-Mercapto-3-phenylpropanoyl)glycyl]-5-(ortho-methylphenyl)proline]

% inhibition pulmonary ACE ([4]; 1 h after administration): 90 ± 1%
% inhibition pulmonary ACE ([4]; 2 h after administration): 86 ± 3%
% inhibition pulmonary ACE ([4]; 4 h after administration): 87 ± 3%
% inhibition pulmonary ACE ([4]; 8 h after administration): 73 ± 3%
% inhibition pulmonary ACE ([4]; 16 h after administration): 20 ± 8%
% inhibition renal NEP ([5]; 1 h after administration): 75 ± 3%
% inhibition renal NEP ([5]; 2 h after administration): 70 ± 5%
% inhibition renal NEP ([5]; 4 h after administration): 74 ± 4%
% inhibition renal NEP ([5]; 8 h after administration): 60 ± 10%
% inhibition renal NEP ([5]; 16 h after administration): 48 ± 4%
SMILES: O=C(NCC(=O)N1[C@@H](c2cccc(O)c2)CC[C@H]1C(=O)O)[C@@H](S)Cc1ccc(O)cc1 [Example 47, N-[N-(5R)-[(2S)-2-mercapto-3-(para-hydroxyphenyl)propanoyl]glycyl]5-(meta-hydroxyphenyl)-L-proline]
Systolic blood pressure (mm Hg) Treated animals ([3]; p.o. 25 mg/kg/day Day 1 to Day 6, n = 10, Day 0): 210 ± 5 mm Hg
Systolic blood pressure (mm Hg) Treated animals ([3]; p.o. 25 mg/kg/day Day 1 to Day 6, n = 10, Day 1): 212 ± 3 mm Hg
Systolic blood pressure (mm Hg) Treated animals ([3]; p.o. 25 mg/kg/day Day 1 to Day 6, n = 10, Day 2): 211 ± 1 mm Hg
Systolic blood pressure (mm Hg) Treated animals ([3]; p.o. 25 mg/kg/day Day 1 to Day 6, n = 10, Day 3): 210 ± 2 mm Hg
Systolic blood pressure (mm Hg) Treated animals ([3]; p.o. 25 mg/kg/day Day 1 to Day 6, n = 10, Day 4): 205 ± 2 mm Hg
Systolic blood pressure (mm Hg) Treated animals ([3]; p.o. 25 mg/kg/day Day 1 to Day 6, n = 10, Day 5): 205 ± 1 mm Hg
Systolic blood pressure (mm Hg) Treated animals ([3]; p.o. 25 mg/kg/day Day 1 to Day 6, n = 10, Day 6): 213 ± 2 mm Hg
Systolic blood pressure (mm Hg) Treated animals ([3]; p.o. 25 mg/kg/day Day 1 to Day 6, n = 10, Day 7): 209 ± 4 mm Hg
Systolic blood pressure (mm Hg) Treated animals ([3]; p.o. 25 mg/kg/day Day 1 to Day 6, n = 10, Day 8): 212 ± 2 mm Hg
Systolic blood pressure (mm Hg) Treated animals ([3]; p.o. 25 mg/kg/day Day 1 to Day 6, n = 10, Day 9): 208 ± 2 mm Hg
Systolic blood pressure (mm Hg) Treated animals ([3]; p.o. 25 mg/kg/day Day 1 to Day 6, n = 10, Day 10): 214 ± 1 mm Hg

SMILES: O=C(O)CNC(=O)C(CS)Cc1ccccc1 (centres unmarked) [thiorphan, N-(2-mercaptomethyl-3-phenyl-1-oxopropyl)glycine]
activity on NEP versus ACE in words ([1]; comment on Table I): exhibits an activity on neutral endopeptidase (NEP) only
effect in clinical trials [6]: causes natriuresis and diuresis without any significant hypotensive effect and without decreasing cardiac overload
inhibitory property, concentration [7]: nanomolar concentration
